Data: patent US20200276168A1, “Sustained Release Pharmaceutical Compositions and Methods of Use” (Qrono, Inc., priority 2015, published 2020)

Test system: head and neck squamous cell carcinoma cells
Assay: head and neck squamous cell carcinoma xenograft model, tumor volume monitored for 4 weeks
Format: in vivo, mice
Settings: payload equal to low dose sustained release formulation (210 nanograms), FIG. 2
Protocol: Athymic mice were injected subcutaneously with head and neck squamous cell carcinoma cells to form tumors. Mice were divided into groups and treated with a sustained release composition according to the present invention, QR206, at a high dose (2.1 micrograms) a low dose (210 nanograms), or with a low dose of unformulated drug (epothilone D, 210 nanograms). Tumor volume was monitored for 4 weeks.

## C/C1=C/C[C@@H](/C(C)=C/c2csc(C)n2)OC(=O)C[C@H](O)C(C)(C)C(=O)[C@H](C)[C@@H](O)[C@@H](C)CCC1 [EpoD, Epothilone D]
  tumor growth rate of vehicle only control compared with the unformulated drug: higher tumor growth rate
